Test results as given in US12655142B2 (Merck Patent GmbH, priority 2019, dated 2026).

Tests used:
c-Kit(V654A) = molecular target: T1, c-Kit(V654A) (Homo sapiens, UniProt P10721, V654A); experiment: c-Kit(V654A) assay (33P-ATP filter binding kinase assay); assay type: biochemical; conditions: recombinant human c-Kit aa 544-end V654A, ATP 200 μM
T1 construct: recombinant human c-Kit, amino acids 544-end containing the V654A mutation; GST (N)
Method: c-Kit(V654A) (N-terminal GST-tagged, recombinant human c-Kit, amino acids 544-end containing the V654A mutation) is incubated with 8 mM MOPS pH 7.0, 0.2 mM EDTA, 250 μM GGMEDIYEFMGGKKK, 10 mM MgAcetate and [gamma-33P-ATP] (specific activity approx. 500 cpm/pmol, concentration 200 μM). The reaction is initiated by the addition of the MgATP mix. After incubation for 40 minutes at room temperature, the reaction is stopped by the addition of 3% phosphoric acid solution. 10 μL of the reaction is then spotted onto a P30 filtermat and washed three times for 5 minutes in 75 mM phosphoric acid and once in methanol prior to drying and scintillation counting.

[1] = molecular target: T2, GIST430/654 cell line expressing mutated constitutively active cKIT receptor tyrosine kinase (Δ560-576 deletion and V654A point mutation) (Homo sapiens, UniProt P10721, DEL560-576/V654A); experiment: Cellular cKIT autophosphorylation (phospho-Y307-cKIT, Luminex bead assay) in GIST430/654 cells; assay type: cell-based; conditions: compounds 45 min, read-out: GIST 430/654 IC50
T2 construct: endogenous in cells; host or cells: GIST430/654 cells
T2 sequence (P10721 with tags, fused parts or gaps DEL560-576/V654A): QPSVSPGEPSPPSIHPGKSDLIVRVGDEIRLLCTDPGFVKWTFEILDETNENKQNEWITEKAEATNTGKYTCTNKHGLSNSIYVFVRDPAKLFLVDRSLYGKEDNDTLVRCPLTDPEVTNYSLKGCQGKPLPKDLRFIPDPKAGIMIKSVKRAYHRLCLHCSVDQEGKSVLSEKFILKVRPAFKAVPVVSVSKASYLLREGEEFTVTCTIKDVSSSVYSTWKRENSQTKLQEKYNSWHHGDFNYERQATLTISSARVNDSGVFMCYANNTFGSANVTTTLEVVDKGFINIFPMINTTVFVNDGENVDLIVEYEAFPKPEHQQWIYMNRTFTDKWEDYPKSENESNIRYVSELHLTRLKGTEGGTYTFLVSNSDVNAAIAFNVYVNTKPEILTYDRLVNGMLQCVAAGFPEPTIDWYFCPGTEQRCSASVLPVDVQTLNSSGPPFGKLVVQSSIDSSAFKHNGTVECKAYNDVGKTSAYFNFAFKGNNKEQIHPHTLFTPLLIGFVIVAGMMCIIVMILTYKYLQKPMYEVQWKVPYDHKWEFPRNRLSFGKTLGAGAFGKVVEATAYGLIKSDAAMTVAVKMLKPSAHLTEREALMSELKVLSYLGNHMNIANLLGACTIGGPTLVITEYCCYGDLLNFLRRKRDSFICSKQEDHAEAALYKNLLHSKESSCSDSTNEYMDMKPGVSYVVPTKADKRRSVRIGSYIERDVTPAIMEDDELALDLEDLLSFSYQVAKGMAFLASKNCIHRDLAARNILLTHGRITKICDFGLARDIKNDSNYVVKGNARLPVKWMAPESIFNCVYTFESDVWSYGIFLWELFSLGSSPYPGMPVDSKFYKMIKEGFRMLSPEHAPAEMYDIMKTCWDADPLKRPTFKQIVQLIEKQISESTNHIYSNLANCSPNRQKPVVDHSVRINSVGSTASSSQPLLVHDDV
Method: Assay Principle for Cellular Testing of cKIT Mutant Inhibitors
The GIST430 cell line expressing constitutive active cKIT receptor tyrosine kinase (Δ560-576 deletion) and the Imatinib resistant GIST430/654 cell line expressing mutated constitutively active cKIT receptor tyrosine kinase (Δ560-576 deletion and V654A point mutation) were employed for assessing cellular potency of compounds. Cellular activity of mutant cKIT was determined by the degree of cKIT autophosphorylation at tyrosine 307 using a Luminex-based bead assay. GIST430 cells were plated with 22,000 cells per well of a 96-well plate in 100 μl medium (85% IMDM/15% FCS) and GIST430/654 cells were plated with 25,000 cells per well of a 96-well plate in 100 μl medium (85% IMDM/15% FCS supplemented with 100 nM Imatinib). At the following day compounds were added in a serial dilution for 45 min. Then, cells were lysed with 90 μl lysis buffer (20 mM Hepes pH 7.5, 200 mM NaCl, 1.5 mM MgCl2×6H2O, 0.4 mM EDTA, 1% Triton-X-100, 1% Phosphatase-Inhibitor II, 20 mM β-Glycerolphosphat, 0.1% Protease-Inhibitor Cocktail III, 0.01% Benzonase) and lysates were cleared by centrifugation through a 96-well filter plate (0.65 μm). Samples were incubated with Luminex-beads which were coupled with an anti-total cKIT antibody overnight at 4° C. under gentle agitation. For detection of phospho-Y307-cKIT a phosphospecific antibody and a species-specific PE-labeled secondary antibody were added. The amount of phospho-Y307-cKIT was determined in a Luminex 200 instrument measuring 100 events per well within 60 seconds.
Counts from samples treated with compounds were calculated as percent of control from solvent treated (0.3% DMSO) samples. Dose-response curves were fitted and IC50 values were determined using Genedata Screener software.

T1 sequence (P10721 544-976 V654A): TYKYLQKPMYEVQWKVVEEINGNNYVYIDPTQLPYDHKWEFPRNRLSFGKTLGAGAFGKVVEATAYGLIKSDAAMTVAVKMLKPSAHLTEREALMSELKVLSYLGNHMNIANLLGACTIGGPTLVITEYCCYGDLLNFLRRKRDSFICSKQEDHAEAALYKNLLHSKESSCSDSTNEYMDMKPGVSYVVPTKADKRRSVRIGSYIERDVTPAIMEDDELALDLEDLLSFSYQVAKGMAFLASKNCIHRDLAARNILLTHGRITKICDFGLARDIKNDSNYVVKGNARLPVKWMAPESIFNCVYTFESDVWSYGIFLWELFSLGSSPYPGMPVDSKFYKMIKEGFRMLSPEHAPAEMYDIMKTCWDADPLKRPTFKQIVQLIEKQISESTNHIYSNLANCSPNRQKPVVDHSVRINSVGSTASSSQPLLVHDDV

SMILES	IC50 (c-Kit(V654A)) [µM]	IC50 [1] [µM]
COc1ccn2c(-c3cc(NCc4ccc(-c5cnn(CCO)c5)cc4)ncn3)cnc2c1 [A30, 2-[4-(4-{[6-(7-methoxy-imidazo[1,2-a]pyridin-3-yl)-pyrimidin-4-ylamino]-methyl}-phenyl)-pyrazol-1-yl]-ethanol]	0.027	0.18
COc1ccn2c(-c3cc(NCc4ccc(-c5cn(C)nn5)cc4)ncn3)cnc2c1 [A31, [6-(7-methoxy-imidazo[1,2-a]pyridin-3-yl)-pyrimidin-4-yl]-[4-(1-methyl-1H-[1,2,3]triazol-4-yl)-benzyl]-amine]	0.049	0.81
COc1ccn2c(-c3cc(NCc4ccc(-c5cnn(C6COC6)c5)cc4)ncn3)cnc2c1 [A33, 6-{7-methoxyimidazo[1,2-a]pyridin-3-yl}-N-({4-[1-(oxetan-3-yl)-1H-pyrazol-4-yl]phenyl}methyl)pyrimidin-4-amine]	0.016	0.12
COc1ccn2c(-c3cc(NCc4ccc(-c5nccc(OC)n5)cc4)ncn3)cnc2c1 [A34, 6-{7-methoxyimidazo[1,2-a]pyridin-3-yl}-N-{[4-(4-methoxypyrimidin-2-yl)phenyl]methyl}pyrimidin-4-amine]	0.052	0.74
COc1ccn2c(-c3cc(NCc4ccc(-c5cn(C)nc5N)cc4)ncn3)cnc2c1 [A35, [4-(3-amino-1-methyl-1H-pyrazol-4-yl)-benzyl]-[6-(7-methoxy-imidazo[1,2-a]pyridin-3-yl)-pyrimidin-4-yl]-amine]	0.071	0.89
COc1ccn2c(-c3cc(NCc4ccc(-c5nnn(C)n5)cc4)ncn3)cnc2c1 [A37, 6-{7-methoxyimidazo[1,2-a]pyridin-3-yl}-N-{[4-(2-methyl-2H-1,2,3,4-tetrazol-5-yl)phenyl]methyl}pyrimidin-4-amine]	0.015	0.22
COc1ccn2c(-c3cc(NCc4ccc(N5CC6CCC(C5)O6)cc4)ncn3)cnc2c1 [A38, [6-(7-methoxy-imidazo[1,2-a]pyridin-3-yl)-pyrimidin-4-yl]-[4-(8-oxa-3-aza-bicyclo[3.2.1]oct-3-yl)-benzyl]-amine]	0.055	0.71
COc1ccn2c(-c3cc(NCc4ccc(-c5cncn5C)cc4)ncn3)cnc2c1 [A39, 6-{7-methoxyimidazo[1,2-a]pyridin-3-yl}-N-{[4-(1-methyl-1H-imidazol-5-yl)phenyl]methyl}pyrimidin-4-amine]	0.027	0.64
COc1ccn2c(-c3cc(NCc4ccc(-c5ccc(C)nn5)cc4)ncn3)cnc2c1 [A40, 6-{7-methoxyimidazo[1,2-a]pyridin-3-yl}-N-{[4-(6-methylpyridazin-3-yl)phenyl]methyl}pyrimidin-4-amine]	0.036	1.1
COc1ccn2c(-c3cc(NCc4ccc(-c5cnc(C)nc5)cc4)ncn3)cnc2c1 [A41, 6-{7-methoxyimidazo[1,2-a]pyridin-3-yl}-N-{[4-(2-methylpyrimidin-5-yl)phenyl]methyl}pyrimidin-4-amine]	0.046	1.6
COc1ccn2c(-c3cc(NCc4ccc(-c5cnn(C)n5)cn4)ncn3)cnc2c1 [A44, [6-(7-methoxy-imidazo[1,2-a]pyridin-3-yl)-pyrimidin-4-yl]-[5-(2-methyl-2H-[1,2,3]triazol-4-yl)-pyridin-2-ylmethyl]-amine]	0.027	0.51
COc1ccn2c(-c3cc(NCc4ccc(-c5nc(C)no5)cc4)ncn3)cnc2c1 [A47, 6-{7-methoxyimidazo[1,2-a]pyridin-3-yl}-N-{[4-(3-methyl-1,2,4-oxadiazol-5-yl)phenyl]methyl}pyrimidin-4-amine]	0.01	0.19
COc1ccn2c(-c3cc(NCc4ccc(-c5cnc(C)o5)cc4)ncn3)cnc2c1 [A48, [6-(7-methoxy-imidazo[1,2-a]pyridin-3-yl)-pyrimidin-4-yl]-[4-(2-methyl-oxazol-5-yl)-benzyl]-amine]	0.025	0.47
COc1ccn2c(-c3cc(NCc4ccc(-c5cnn(C6CC6)c5)cc4)ncn3)cnc2c1 [A49, [4-(1-cyclopropyl-1H-pyrazol-4-yl)-benzyl]-[6-(7-methoxy-imidazo[1,2-a]pyridin-3-yl)-pyrimidin-4-yl]-amine]	0.0073	0.089
COc1ccn2c(-c3cc(NCc4ccc(-c5cn(C)nc5OC)cc4)ncn3)cnc2c1 [A50, N-{[4-(3-methoxy-1-methyl-1H-pyrazol-4-yl)phenyl]methyl}-6-{7-methoxyimidazo[1,2-a]pyridin-3-yl}pyrimidin-4-amine]	0.025	0.49
COc1ccn2c(-c3cc(NCc4ccc(-c5cc(C)no5)cc4)ncn3)cnc2c1 [A52, [6-(7-methoxy-imidazo[1,2-a]pyridin-3-yl)-pyrimidin-4-yl]-[4-(3-methyl-isoxazol-5-yl)-benzyl]-amine]	0.0057	0.15
COc1ccn2c(-c3cc(NCc4ccc(-c5ncc(C)o5)cc4)ncn3)cnc2c1 [A53, [6-(7-methoxy-imidazo[1,2-a]pyridin-3-yl)-pyrimidin-4-yl]-[4-(5-methyl-oxazol-2-yl)-benzyl]-amine]	0.0063	0.34
Cn1cc(-c2ccc(CNc3cc(-c4cnc5cc(OC6CCOCC6)ccn45)ncn3)cc2)cn1 [A55, [4-(1-methyl-1H-pyrazol-4-yl)-benzyl]-{6-[7-(tetrahydro-pyran-4-yloxy)-imidazo[1,2-a]pyridin-3-yl]-pyrimidin-4-yl}-amine]	0.022	0.65
Cn1cc(-c2ccc(CNc3cc(-c4cnc5cc(OC6CCOC6)ccn45)ncn3)cc2)cn1 (stereo not drawn) [A57, [4-(1-methyl-1H-pyrazol-4-yl)-benzyl]-{6-[7-(tetrahydro-furan-3-yloxy)-imidazo[1,2-a]pyridin-3-yl]-pyrimidin-4-yl}-amine]	0.011	0.27
Cn1cc(-c2ccc(CNc3cc(-c4cnc5cc(OCC6CC6)ccn45)ncn3)cc2)cn1 [A58, 6-[7-(cyclopropylmethoxy)imidazo[1,2-a]pyridin-3-yl]-N-{[4-(1-methyl-1H-pyrazol-4-yl)phenyl]methyl}pyrimidin-4-amine]	0.019	0.15
CN(C)CCOc1ccn2c(-c3cc(NCc4ccc(-c5cnn(C)c5)cc4)ncn3)cnc2c1 [A59, 6-{7-[2-(dimethylamino)ethoxy]imidazo[1,2-a]pyridin-3-yl}-N-{[4-(1-methyl-1H-pyrazol-4-yl)phenyl]methyl}pyrimidin-4-amine]	0.011	0.082
Cc1ccn2c(-c3cc(NCc4ccc(-c5cnn(C)c5)cc4)ncn3)cnc2c1 [A66, [6-(7-methyl-imidazo[1,2-a]pyridin-3-yl)-pyrimidin-4-yl]-[4-(1-methyl-1H-pyrazol-4-yl)-benzyl]-amine]	0.0078	0.19
c1cn(-c2ccc(CNc3cc(-c4cnc5cc(OCCN6CCOCC6)ccn45)ncn3)cc2)nn1 [A68, {6-[7-(2-morpholin-4-yl-ethoxy)-imidazo[1,2-a]pyridin-3-yl]-pyrimidin-4-yl}-(4-[1,2,3]triazol-1-yl-benzyl)-amine]	0.0057	0.063
COc1cc2ncc(-c3cc(NCc4ccc(-c5cnn(C)c5)cc4)ncn3)n2cc1F [A69, [6-(6-fluoro-7-methoxy-imidazo[1,2-a]pyridin-3-yl)-pyrimidin-4-yl]-[4-(1-methyl-1H-pyrazol-4-yl)-benzyl]-amine]	0.013	0.24
